Laboratory results from article PMC12751014, “Non-Catalytic Inhibitors of the p38/MK2 Interface: Repurposing Approved Drugs to Target Neuroinflammation in Alzheimer’s Disease” (Journal of Medicinal Chemistry, 2025).
Entries after “also recorded” stand apart in the source; their conditions may differ. Blank lines part the entries; values can stand above or below the molecule they belong to. Where no end group is shown, it is not given here.

Columns and labels:
p38/MK2 interaction [1] = biological target: T1, p38/MK2 interaction (Homo sapiens, UniProt Q16539); assay: TR-FRET ultra-high-throughput screening (uHTS), 1536-well, HEK293T lysate VF-p38α / GST-MK2; type: binding; parameters: inhibition of p38/MK2 interaction, primary screen: concentration or dose not given beside the values; settings: for 620 nm Fold over Control: fluorescence interference readout; for Pct of control: uHTS TR-FRET signal, Emory Enriched Library; for inhibition of p38/MK2 interaction, primary screen: relative to DMSO control, 1536-well
p38/MK2 interaction [2] = biological target: T1, p38/MK2 interaction; assay: TR-FRET assay with purified recombinant His-p38 and GST-MK2; type: binding; settings: for IC50: purified His-p38 and GST-MK2, read-out: IC50, inhibition of p38/MK2 PPI (TR-FRET, recombinant purified proteins); for inhibition at 30 µM: read-out: inhibition of p38/MK2 PPI at 30 μM, recombinant purified proteins
Experimental: ENSG00000112062, UniProt ID: Q16539-1) was cloned into a pMCSG7 vector and transformed into Escherichia coli strain BL21(DE3). […] The resuspended cells were lysed through sonication. The lysate was centrifuged for 20 min at 70,000g at 4 °C and the clarified supernatant was passed through a gravity column containing 2 mL Ni-NTA resin pre-equilibrated with equilibration buffer. The resin was then washed with 25 column volumes of equilibration buffer supplemented with 40 mM imidazole, and the protein was eluted with equilibration buffer supplemented with 200 mM imidazole. […] The purity of the enzyme was verified by sodium dodecyl sulfate-polyacrylamide gel electrophoresis (SDS-PAGE) with Coomassie staining, aliquots flash frozen in liquid nitrogen, and stored at -80 °C.

[3] = biological target: VF-tagged p38 / His-tagged MK2 346–400 docking peptide (Homo sapiens, UniProt Q16539); assay: Cell lysate-based TR-FRET competition assay, VF-p38 / His-MK2 346–400 docking peptide; settings: HEK293T lysate TR-FRET; read-out: IC50, binding of His-MK2 346–400 docking peptide to VF-p38
HMC3 microglial cells = assay: qRT-PCR of LPS-induced cytokine expression in HMC3 microglial cells; type: cell-based, human; settings: HMC3, 5 μM compound 1 h before 100 ng/mL LPS 4 h
Experimental: HMC3 cells were treated with 100 ng/mL E. coli LPS (Sigma-Aldrich, catalog no. L4005) for 4 h in DMEM media. […] Following pretreatment, iMGLs were challenged with 100 ng/mL LPS and 20 ng/mL interferon-γ (IFN-γ) for 24 h to induce an inflammatory response. At the end of the stimulation, cell lysates were collected for qPCR analysis of TNF-α […] gene expression. Total RNA isolation from cell samples was conducted using the RNeasy Plus kit (Qiagen, catalog no. 74134) according to manufacturer instructions and treated with DNase I (Invitrogen, catalog no. 18068-015). Extracted RNA was quantified using the Nanodrop One Spectrophotometer (Thermo Scientific) and then reverse-transcribed into cDNA in equal quantity (<1000 ng/reaction) with the SuperScript III System (Invitrogen, catalog no. 18080-051) following manufacturer directions. cDNA sample was treated with RNase H (Invitrogen, catalog no. 18021014) and diluted to 4 ng/μL equivalent of the starting total RNA. qPCR was performed in 96-well PCR plates (BioRad, catalog no. HSP9601) using the Realplex4Mastercycler (Eppendorf). Each reaction well combines 5 μL cDNA sample, 10 μL 2X SYBR Green Supermix (BioRad, catalog no. 1725271), 1 μL 5 μM primer mix for each target gene, and nuclease-free water up to 20 μL. […] The primer sequences used were: TNFα forward [NT], reverse [NT]-6 forward [NT], reverse [NT]-1β forward [NT], reverse [NT] Each gene was expression-normalized against the housekeeping gene GAPDH with the primer sequences: forward [NT], reverse [NT] Primers were obtained from Integrated DNA Technologies in lyophilized form. The cycler program was set to denaturation at 95 °C for 15 s, followed by annealing and extension at 60 °C for 60 s, repeated for 40 PCR cycles. Melting curve analyses were performed for each sample to ensure primer specificity. The experiment was performed in biological quadruplicates and technical quadruplicates.

p38/MK2 interaction [4] = biological target: T1, p38/MK2 interaction; assay: Cell lysate-based TR-FRET (VF-p38 / GST-MK2, HEK293T lysate), dose-response; type: binding; settings: read-out: IC50, p38/MK2 PPI, cell lysate-based TR-FRET
[5] = biological target: T2, His-tagged p38α (MAPK14), purified recombinant (human, UniProt Q16539-1 1-360); assay: FRET or BRET; TR-FRET with purified His-p38α (10 nM) and GST-MK2 (1 uM), anti-His-d2 and anti-GST-Tb antibodies; 20 mM Tris-HCl pH 7.0, 50 mM NaCl, 0.01% NP-40; room temperature, 2 h; peptides or compounds added as competitors; settings: both partners purified
T2 construct: also called His-p38; His-p38α; source: E. coli BL21(DE3), purified (Ni-NTA, S200 size exclusion), in-house; or bought: Abcam AB271606; for the FP assay obtained from research collaborators

[6] = biological target: T2, His-tagged p38α (MAPK14), purified …; assay: fluorescence polarisation; 10 nM FITC-MK2 peptide with His-p38α serially diluted 2-fold from a 5 uM working solution; 20 mM Tris-HCl pH 7.0, 50 mM NaCl, 0.01% NP-40; 384-well plate; settings: both partners purified

T1 sequence (Q16539 whole entry): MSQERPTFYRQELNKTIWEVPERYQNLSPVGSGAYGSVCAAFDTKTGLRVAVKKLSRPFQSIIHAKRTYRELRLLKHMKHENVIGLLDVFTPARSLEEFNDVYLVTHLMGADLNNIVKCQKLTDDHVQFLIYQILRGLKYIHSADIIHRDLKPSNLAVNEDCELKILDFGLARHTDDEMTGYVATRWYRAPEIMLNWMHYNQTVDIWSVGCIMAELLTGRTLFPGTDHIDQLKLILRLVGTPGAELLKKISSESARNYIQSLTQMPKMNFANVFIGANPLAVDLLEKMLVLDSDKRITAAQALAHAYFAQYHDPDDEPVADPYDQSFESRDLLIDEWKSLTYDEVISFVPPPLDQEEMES
T2 sequence (Q16539 whole entry): as above
Sequence of VF-tagged p38 / His-tagged MK2 346–400 docking peptide (Q16539 whole entry): as above

IC50 (p38/MK2 interaction [2]): 2.27 µM
Molecule: CCc1cn(-c2cc(NC(=O)c3ccc(C)c(Nc4nccc(-c5cccnc5)n4)c3)cc(C(F)(F)F)c2)cn1 [Compound 2]

IC50 (p38/MK2 interaction [2]): 7.45 µM
Molecule: Cc1cn(-c2cc(C(=O)Nc3ccc(C)c(Nc4nccc(-c5cccnc5)n4)c3)cc(C(F)(F)F)c2)cn1 [Compound 3]

IC50 (p38/MK2 interaction [2]): 8.24 µM
Molecule: Cc1cn(-c2cc(NC(=O)c3ccc(O)c(Nc4nccc(-c5cccnc5)n4)c3)cc(C(F)(F)F)c2)cn1 [Compound 4]

IC50 (p38/MK2 interaction [2]): 11.5 µM
Molecule: Cc1cn(-c2cc(NC(=O)c3ccc(C)c(Nc4ncccn4)c3)cc(C(F)(F)F)c2)cn1 [Compound 5]

IC50 (p38/MK2 interaction [2]): 21.3 µM
Molecule: CNC(=O)c1ccc(CCNC(=O)C(=O)Nc2cc(-n3cnc(C)c3)cc(C(F)(F)F)c2)cc1 [Compound 6]

inhibition at 30 µM (p38/MK2 interaction [2]): < 50%
Molecule: Cc1cn(-c2cc(NC(=O)Nc3nnc(-c4ccncc4)s3)cc(C(F)(F)F)c2)cn1 [Compound 7]

inhibition at 30 µM (p38/MK2 interaction [2]): < 50%
Molecule: Cc1cn(-c2cc(NC(=O)C(=O)NCc3cccc(C(N)=O)c3)cc(C(F)(F)F)c2)cn1 [Compound 8]

inhibition at 30 µM (p38/MK2 interaction [2]): < 50%
Molecule: Cc1cn(-c2cc(NC(=O)c3[nH]cnc3C#N)cc(C(F)(F)F)c2)cn1 [Compound 9]

inhibition at 30 µM (p38/MK2 interaction [2]): < 50%
Molecule: COc1ccc(CC(=O)Nc2cc(-n3cnc(C)c3)cc(C(F)(F)F)c2)nc1 [Compound 10]

inhibition of p38/MK2 interaction, primary screen (p38/MK2 interaction [1]): 68%
Molecule: CCOc1nc2cccc(C(=O)OC(C)OC(=O)OC3CCCCC3)c2n1Cc1ccc(-c2ccccc2-c2nnn[nH]2)cc1 (stereo not drawn) [candesartan cilexetil]

Further lines, the molecule ahead of its results:

Molecule: C=CC(=O)Nc1ccc2ncnc(Nc3ccc(OCc4cccc(F)c4)c(Cl)c3)c2c1 [AST-1306, N-[4-[3-chloro-4-[(3-fluorophenyl)methoxy]anilino]quinazolin-6-yl]prop-2-enamide;4-methylbenzenesulfonic acid]
620 nm Fold over Control (p38/MK2 interaction [1]): 1.01 | Pct of control (p38/MK2 interaction [1]): 9.2 Pct of control

Molecule: CCCCCCCCCCCCc1ccc(S(=O)(=O)Nc2nncs2)cc1 [PHT-427, 4-dodecyl-N-(1,3,4-thiadiazol-2-yl)benzenesulfonamide]
620 nm Fold over Control (p38/MK2 interaction [1]): 0.94 | Pct of control (p38/MK2 interaction [1]): -2.49 Pct of control

Molecule: O=c1ncn2nc(Sc3ccc(F)cc3F)ccc2c1-c1c(Cl)cccc1Cl [VX-745]
disruption of p38/MK2 interaction (TR-FRET signal) (p38/MK2 interaction [2]; recombinant p38 and MK2 purified from E. coli): failed to disrupt the interaction; also recorded: failed to reduce the TR-FRET signal

Molecule: COc1cc2nc(N(C)CCCNC(=O)C3CCCO3)nc(N)c2cc1OC (stereo not drawn) [alfuzosin]
IC50 (p38/MK2 interaction [2]): 6.9 µM | IC50 [3]: 14.4 µM | LPS-induced TNF-α, IL-6, and IL-1β expression (HMC3 microglial cells): significantly (p-values <0.05) suppressed | inhibition of p38/MK2 interaction, primary screen (p38/MK2 interaction [1]): 82% | IC50 (p38/MK2 interaction [4]): 10 µM

Molecule: C[C@@H]1[C@H](O)[C@@H](C)/C=C/C=C/C=C/C=C/C=C/C=C/C=C/[C@H](O[C@@H]2O[C@H](C)[C@@H](O)[C@H](N)[C@@H]2O)C[C@@H]2O[C@](O)(C[C@@H](O)C[C@@H](O)[C@H](O)CC[C@@H](O)C[C@@H](O)CC(=O)O[C@H]1C)C[C@H](O)[C@H]2C(=O)O [amphotericin B]
inhibition of p38/MK2 interaction, primary screen (p38/MK2 interaction [1]): 51%

Molecule: CN1CCc2cccc3c2[C@H]1Cc1ccc(O)c(O)c1-3 [apomorphine]
inhibition of p38/MK2 interaction, primary screen (p38/MK2 interaction [1]): 56%

Molecule: C=C(c1ccc(C(=O)O)cc1)c1cc2c(cc1C)C(C)(C)CCC2(C)C [bexarotene]
inhibition of p38/MK2 interaction, primary screen (p38/MK2 interaction [1]): 74%

Molecule: Cc1cc(C(C#N)c2ccc(Cl)cc2)c(Cl)cc1NC(=O)c1cc(I)cc(I)c1O (stereo not drawn) [closantel]
inhibition of p38/MK2 interaction, primary screen (p38/MK2 interaction [1]): 53%

Molecule: COc1cc2nc(N3CCN(C(=O)C4COc5ccccc5O4)CC3)nc(N)c2cc1OC (stereo not drawn) [doxazosin]
IC50 (p38/MK2 interaction [2]): 4.4 µM | IC50 [3]: 4.6 µM | LPS-induced TNF-α, IL-6, and IL-1β expression (HMC3 microglial cells): significantly (p-values <0.05) suppressed | inhibition of p38/MK2 interaction, primary screen (p38/MK2 interaction [1]): 58% | IC50 (p38/MK2 interaction [4]): 30.1 µM

Molecule: CN(C)[C@@H]1C(O)=C(C(N)=O)C(=O)[C@@]2(O)C(O)=C3C(=O)c4c(O)cccc4[C@@](C)(O)[C@H]3[C@H](O)[C@@H]12 [oxytetracycline]
inhibition of p38/MK2 interaction, primary screen (p38/MK2 interaction [1]): 51%

Molecule: CS(=O)(=O)c1ccc(C2=C(c3ccccc3)C(=O)OC2)cc1 [rofecoxib]
inhibition of p38/MK2 interaction, primary screen (p38/MK2 interaction [1]): 73%

Molecule: COc1cc2nc(N3CCN(C(=O)C4CCCO4)CC3)nc(N)c2cc1OC (stereo not drawn) [terazosin]
IC50 (p38/MK2 interaction [2]): 6.2 µM | IC50 [3]: 8.3 µM | LPS-induced TNF-α, IL-6, and IL-1β expression (HMC3 microglial cells): significantly (p-values <0.05) suppressed | inhibition of p38/MK2 interaction, primary screen (p38/MK2 interaction [1]): 77% | IC50 (p38/MK2 interaction [4]): 10.5 µM

B1: FITC-MK2 370–393 peptide (peptide, UniProt P49137 370-393, looked up)
peptide: IKIKKIEDASNPLLLKRRKKARAL
modifications: not fully specified (N-terminus); also: FITC label (position not given here)
notes: MK2 (MAPKAPK2) C-terminal docking motif, residues 370-393 (I370-L393); the methods name the peptide 370-390; also called I370–L393; FITC conjugated MK2 370–390 peptide (methods); source: synthetic peptide, bought: GenScript
IC50 [5]: 420 nM | EC50 [6]: 26.9 nM

B2: FITC-MK2 369–382 peptide (peptide, UniProt P49137 369-382, looked up)
peptide: QIKIKKIEDASNPL
modifications: not fully specified (N-terminus); also: FITC label (position not given here)
notes: MK2 (MAPKAPK2) C-terminal docking motif, residues 369-382 as named in the text; 369-382 would be 14 residues; the legend's I370-L382 is 13 residues; also called I370-L382; truncated 13-residue peptide
IC50 [5]: 4260 nM
